According to patent publication US20250255847A1, “[…]s: Novel Drugs for Triple Negative Breast Cancer” (SIMMARON RSEARCH INC, priority 2024, published 2025):

Target: T1, STAT3 (pY705, pS727) (Homo sapiens, UniProt P40763)
T1 construct: endogenous in cells; host or cells: MDA-MB-468
Experiment: JAK/STAT phospho antibody array, phospho-STAT3 in EGF-treated MDA-MB-468 cells
Assay type: cell-based
Details: EGF (25 ng) + 5 nM compound, 6 hrs
Experimental: FIG. 5 illustrates an embodiment of the present invention and illustrates evaluations of SIM-1 and SIM-2 as STAT3 inhibitors. (A) Protein thermal shift assay was performed to assess the melting of purified recombinant STAT3 (blue; 0.5 μg protein) (Tm=melting temperature=68.88° C.). The representative melting curves were derived after adding SIM-1 (red; 4 nM), SIM-2 (purple; 8 nM), and positive control stattic (grey; 20 nM) to the STAT3 protein. The differences of melting temperature (ΔTm) between pure protein and protein+ligands are −4.54° C., −4.16° C., and 0.39° C. for SIM-1, SIM-2, and stattic (ΔTm^cut-off>2° C.). […] Each colored arrowhead represents a specific phosphoprotein, and the description was added in the bottom of array images. […] Similarly, full-length STAT5b protein melting was assessed with (J) SIM-1, (K) SIM-2, and (L) stattic. […]
Protein array. […] After that, cells were scrapped with 1×TBS, lysed with lysis buffer supplemented with protease and phosphatase inhibitor cocktail, measured for total protein concentration ([…]), diluted 5 times with assay diluent buffer and then applied along with biotin-labeled probes on the glass membrane coated with antibodies. […]
Next, the present invention evaluated if these compounds as disclosed in the present invention as small-molecule inhibitors targeting STAT3 activation, inhibited the activation of STAT3, but not other STATs. […]

T1 sequence (P40763 whole entry): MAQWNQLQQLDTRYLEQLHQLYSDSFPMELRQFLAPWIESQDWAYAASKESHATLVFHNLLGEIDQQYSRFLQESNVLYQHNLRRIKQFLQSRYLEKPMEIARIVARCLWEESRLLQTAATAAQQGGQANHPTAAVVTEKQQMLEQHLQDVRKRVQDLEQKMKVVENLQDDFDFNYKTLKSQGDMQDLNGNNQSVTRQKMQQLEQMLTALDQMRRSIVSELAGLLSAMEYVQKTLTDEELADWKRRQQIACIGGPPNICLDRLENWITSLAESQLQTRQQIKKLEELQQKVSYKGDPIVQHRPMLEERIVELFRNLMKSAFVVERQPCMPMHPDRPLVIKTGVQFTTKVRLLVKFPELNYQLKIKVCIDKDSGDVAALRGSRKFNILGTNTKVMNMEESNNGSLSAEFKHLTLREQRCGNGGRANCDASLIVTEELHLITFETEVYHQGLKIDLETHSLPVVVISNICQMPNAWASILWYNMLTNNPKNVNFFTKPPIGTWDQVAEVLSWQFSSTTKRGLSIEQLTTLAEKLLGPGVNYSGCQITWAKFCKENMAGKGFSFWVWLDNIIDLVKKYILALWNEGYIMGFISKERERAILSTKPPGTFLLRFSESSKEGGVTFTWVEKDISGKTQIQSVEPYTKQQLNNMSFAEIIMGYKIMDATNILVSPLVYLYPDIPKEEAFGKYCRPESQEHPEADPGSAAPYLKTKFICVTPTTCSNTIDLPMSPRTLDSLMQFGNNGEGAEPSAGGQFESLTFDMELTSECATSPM

SMILES	levels of pY705 STAT3
O=C(O)CCC(=O)NCc1csc2ccc(Cl)cc12 [SIM-1, 4-[(5-chloro-1-benzothiophen-3-yl)methylamino]-4-oxobutanoic acid]	strongly and selectively suppressed
CCOC(=O)c1c(NC(C)=O)sc2c(Cl)c(/C=N/O)ccc12 [SIM-2, ethyl 2-acetamido-7-chloro-6-(hydroxyiminomethyl)-1-benzothiophene-3-carboxylate]	strongly and selectively suppressed
